In the experiment the target is human PDE10A2 (Homo sapiens (Human), UniProt Q9Y233). Kind of experiment: PDE10 fluorescence polarization (IMAP FP) inhibition assay. In kind it is biochemical. The conditions noted are these: human PDE10A2 from transfected AD293 cells; FAM-labeled cAMP 50 nM; apparent inhibition constant; read-out: PDE10A Ki. A digest of the protocol:
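Cytoplasmic lysate of AD293 cells transiently expressing human PDE10A2 (enzyme level giving 20% conversion) incubated with 50 nM FAM-cAMP in pH 7.2 Tris/MgCl2 buffer, 30 min at room temperature. IMAP binding solution added, FP read after ≥1 h; 10-point 3-fold compound titrations fitted to a four-parameter equation.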

Each structure is given as a SMILES string.

Sequence of human PDE10A2 (Q9Y233 267-1055): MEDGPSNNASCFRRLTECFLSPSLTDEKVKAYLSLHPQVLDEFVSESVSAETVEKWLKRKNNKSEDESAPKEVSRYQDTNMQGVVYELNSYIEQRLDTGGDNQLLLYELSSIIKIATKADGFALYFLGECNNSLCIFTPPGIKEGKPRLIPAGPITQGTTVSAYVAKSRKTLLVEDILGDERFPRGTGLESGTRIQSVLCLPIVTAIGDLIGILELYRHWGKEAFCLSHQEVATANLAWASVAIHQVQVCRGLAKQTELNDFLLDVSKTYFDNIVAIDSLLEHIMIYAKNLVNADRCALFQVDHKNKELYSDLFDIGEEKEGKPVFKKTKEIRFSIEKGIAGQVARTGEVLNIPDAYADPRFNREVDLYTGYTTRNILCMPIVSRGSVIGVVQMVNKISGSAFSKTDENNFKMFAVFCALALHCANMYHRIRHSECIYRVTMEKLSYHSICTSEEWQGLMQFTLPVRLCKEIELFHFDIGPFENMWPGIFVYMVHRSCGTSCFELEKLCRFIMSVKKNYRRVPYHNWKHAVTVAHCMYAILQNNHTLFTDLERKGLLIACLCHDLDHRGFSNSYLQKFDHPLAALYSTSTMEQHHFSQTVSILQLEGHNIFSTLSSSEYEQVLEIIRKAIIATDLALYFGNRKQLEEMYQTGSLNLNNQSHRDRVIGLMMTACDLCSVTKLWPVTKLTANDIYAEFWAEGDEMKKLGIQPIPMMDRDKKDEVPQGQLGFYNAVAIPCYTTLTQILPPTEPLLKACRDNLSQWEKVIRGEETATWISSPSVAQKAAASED

With `COc1ccc([C@H]2C[C@@H]2COc2nc(C)ncc2-c2ccnc(N)c2C#N)nc1` [Example 108, 2-amino-4-(4-(((1S,2S)-2 (5-methoxypyridin-2-yl)cyclopropyl)methoxy)-2-methylpyrimidin-5-yl)nicotinonitrile], the Ki is 3.75 nM. In the case of `COc1ccc([C@H]2C[C@@H]2COc2nc(C)ncc2-c2ccc(C#N)n2C)nc1` [Example 109, 5-(4-(((1S,2S)-2-(5-methoxypyridin-2-yl)cyclopropyl)methoxy)-2-methylpyrimidin-5-yl)-1-methyl-1H-pyrrole-2-carbonitrile], the Ki is 0.94 nM. Then `CCOC(=O)c1cnc(O)cc1-c1cnc(C)nc1OC[C@H]1C[C@@H]1c1ccc(OC)cn1` [Example 110, ethyl 6-hydroxy-4-(4-(((1S,2S)-2-(5-methoxypyridin-2-yl)cyclopropyl)methoxy)-2-methylpyrimidin-5-yl)nicotinate], with 41.6 nM. On to `COc1ccc([C@H]2C[C@@H]2COc2nc(C)ncc2-c2cc(Cl)ncc2OC)nc1` [Example 111, 5-(2-chloro-5-methoxypyridin-4-yl)-4-(((1S,2S)-2-(5-methoxypyridin-2-yl)cyclopropyl)methoxy)-2-methylpyrimidine], for which the Ki is 0.79 nM. For the compound `COc1ccc([C@H]2C[C@@H]2COc2nc(C)ncc2-c2cc(Cl)ncc2OCOCC[Si](C)(C)C)nc1` [Example 112, 5-(2-chloro-5-((2-(trimethylsilyl)ethoxy)methoxy)pyridin-4-yl)-4-(((1S,2S)-2-(5-methoxypyridin-2-yl)cyclopropyl)methoxy)-2-methylpyrimidine], the Ki came out at 19.2 nM. To `COc1ccc([C@H]2C[C@@H]2COc2nc(C)ncc2-c2cc(C#N)n(C)c2)nc1` [Example 113, 4-(4-(((1S,2S)-2-(5-methoxypyridin-2-yl)cyclopropyl)methoxy)-2-methylpyrimidin-5-yl)-1-methyl-1H-pyrrole-2-carbonitrile] belongs 0.89 nM; to `COc1ccc([C@H]2C[C@@H]2COc2nc(C)ncc2-c2cn(C)nc2C(O)C(F)(F)F)nc1` (stereo partly drawn) [Example 114, 2,2,2-trifluoro-1-(4-(4-(((1S,2S)-2-(5-methoxypyridin-2-yl)cyclopropyl)methoxy)-2-methylpyrimidin-5-yl)-1-methyl-1H-pyrazol-3-yl)ethanol], 0.93 nM; to `COc1ccc([C@H]2C[C@@H]2COc2nc(C)ncc2C2=CCOCC2)nc1` [Example 115, 5-(3,6-dihydro-2H-pyran-4-yl)-4-(((1S,2S)-2-(5-methoxypyridin-2-yl)cyclopropyl)methoxy)-2-methylpyrimidine], 0.76 nM.

In the case of `Cc1ncc(-c2cn(C)nc2CO)c(OC[C@H]2C[C@@H]2c2ccccn2)n1` [Example 116, (1-methyl-4-(2-methyl-4-(((1S,2S)-2-(pyridin-2-yl)cyclopropyl)methoxy)pyrimidin-5-yl)-1H-pyrazol-3-yl)methanol], the Ki came to 9.01 nM. Then `Cc1ncc(-c2ccc(C(F)(F)F)nc2)c(OC[C@H]2C[C@@H]2c2ccccn2)n1` [Example 117, 2-methyl-4-(((1S,2S)-2-(pyridin-2-yl)cyclopropyl)methoxy)-5-(6-(trifluoromethyl)pyridin-3-yl)pyrimidine], with 23.5 nM. `Cc1ncc(-c2cnc(C(C)(C)O)cc2C)c(OC[C@H]2C[C@@H]2c2ccccn2)n1` [Example 118, 2-(4-methyl-5-(2-methyl-4-(((1S,2S)-2-(pyridin-2-yl)cyclopropyl)methoxy)pyrimidin-5-yl)pyridin-2-yl)propan-2-ol]: the Ki worked out at 0.1 nM. `Cc1ncc(-c2ccc(C(C)(C)O)nc2C)c(OC[C@H]2C[C@@H]2c2ccccn2)n1` [Example 119, 2-(6-methyl-5-(2-methyl-4-(((1S,2S)-2-(pyridin-2-yl)cyclopropyl)methoxy)pyrimidin-5-yl)pyridin-2-yl)propan-2-ol]: the Ki is 2.15 nM. Consider `Cc1ncc(-c2ccc(C3(O)CCCC3)nc2)c(OC[C@H]2C[C@@H]2c2ccccn2)n1` [Example 120, 1-(5-(2-methyl-4-(((1S,2S)-2-(pyridin-2-yl)cyclopropyl)methoxy)pyrimidin-5-yl)pyridin-2-yl)cyclopentanol], for which the Ki was found to be 1.04 nM.

For the compound `Cc1ncc(-c2ccc(C(C)O)cc2)c(OC[C@H]2C[C@@H]2c2ccccn2)n1` (stereo partly drawn) [Example 121, 1-(4-(2-methyl-4-(((1S,2S)-2-(pyridin-2-yl)cyclopropyl)methoxy)pyrimidin-5-yl)phenyl)ethanol], the Ki turned out to be 5.05 nM. To `Cc1ncc(-c2ccc(C(C)O)cc2)c(OC[C@H]2C[C@@H]2c2ccccn2)n1` (stereo partly drawn) [Example 122, 1-(4-(2-methyl-4-(((1S,2S)-2-(pyridin-2-yl)cyclopropyl)methoxy)pyrimidin-5-yl)phenyl)ethanol] belongs 2.85 nM; to `Cc1ncc(-c2ccc(C(C)(C)O)nc2)c(OC[C@H]2C[C@@H]2c2ccccn2)n1` [Example 123, 2-(5-(2-methyl-4-(((1S,2S)-2-(pyridin-2-yl)cyclopropyl)methoxy)pyrimidin-5-yl)pyridin-2-yl)propan-2-ol], 1.09 nM. In the case of `Cc1ncc(-c2ccc(C(C)(C)O)nc2)c(OC[C@@H]2C[C@H]2c2ccc(Br)cn2)n1` [Example 124, 2-(5-(4-(((1R,2R)-2-(5-bromopyridin-2-yl)cyclopropyl)methoxy)-2-methylpyrimidin-5-yl)pyridin-2-yl)propan-2-ol], the Ki came out at 8.57 nM.

With `Cc1ccc([C@H]2C[C@@H]2COc2nc(C)ncc2-c2cn(C)nc2C(F)F)nc1` [Example 125, 5-(3-(difluoromethyl)-1-methyl-1H-pyrazol-4-yl)-2-methyl-4-(((1S,2S)-2-(5-methylpyridin-2-yl)cyclopropyl)methoxy)pyrimidine], the Ki worked out at 0.4 nM.

On to `Cc1ncc(-c2ncccc2F)c(OC[C@H]2C[C@@H]2c2ccc3ccccc3n2)n1` [Example 127, 2-((1S,2S)-2-((5-(3-fluoropyridin-2-yl)-2-methylpyrimidin-4-yloxy)methyl)cyclopropyl)quinoline], for which the Ki was 0.51 nM. Turning to `Cc1ccnc(-c2cnc(C)nc2OC[C@H]2C[C@@H]2c2ccc3ccccc3n2)c1` [Example 128, 2-((1S,2S)-2-((2-methyl-5-(4-methylpyridin-2-yl)pyrimidin-4-yloxy)methyl)cyclopropyl)quinoline], the Ki was determined as 0.12 nM.

As to `Cc1ncc(-c2ccc3ncc(C)n3c2)c(OC[C@H]2C[C@@H]2c2ccc3ccccc3n2)n1` [Example 129, 2-((1S,2S)-2-((2-methyl-5-(3-methylimidazo[1,2-a]pyridin-6-yl)pyrimidin-4-yloxy)methyl)cyclopropyl)quinoline], the Ki amounted to 0.02 nM.

For the compound `Cc1ccc([C@H]2C[C@@H]2COc2nc(C)ncc2-c2ccc3ncc(C)n3c2)nc1` [Example 130, 3-methyl-6-(2-methyl-4-(((1S,2S)-2-(5-methylpyridin-2-yl)cyclopropyl)methoxy)pyrimidin-5-yl)imidazo[1,2-a]pyridine], the Ki turned out to be 0.39 nM. Turning to `COc1cc(-c2cnc(C)nc2OC[C@H]2C[C@@H]2c2ccc3ccccc3n2)cc2nccn12` [Example 131, 2-((1S,2S)-2-((5-(5-methoxyimidazo[1,2-a]pyridin-7-yl)-2-methylpyrimidin-4-yloxy)methyl)cyclopropyl)quinoline], the Ki worked out at 0.04 nM. To `COc1cc(-c2cnc(C)nc2OC[C@H]2C[C@@H]2c2ccc(C)cn2)cc2nccn12` [Example 132, 5-methoxy-7-(2-methyl-4-(((1S,2S)-2-(5-methylpyridin-2-yl)cyclopropyl)methoxy)pyrimidin-5-yl)imidazo[1,2-a]pyridine] belongs 0.81 nM; to `Cc1ncc(-c2cnc3ccccn23)c(OC[C@H]2C[C@@H]2c2ccc3ccccc3n2)n1` [Example 133, 2-((1S,2S)-2-((5-(imidazo[1,2-a]pyridin-3-yl)-2-methylpyrimidin-4-yloxy)methyl)cyclopropyl)quinoline], 0.06 nM. For `Cc1ncc(-c2cccn3ccnc23)c(OC[C@H]2C[C@@H]2c2ccc3ccccc3n2)n1` [Example 134, 2-((1S,2S)-2-((5-(imidazo[1,2-a]pyridin-8-yl)-2-methylpyrimidin-4-yloxy)methyl)cyclopropyl)quinoline], the Ki was 4.03 nM. Take `Cc1ccc([C@H]2C[C@@H]2COc2nc(C)ncc2-c2cccn3ccnc23)nc1` [Example 135, 8-(2-methyl-4-(((1S,2S)-2-(5-methylpyridin-2-yl)cyclopropyl)methoxy)pyrimidin-5-yl)imidazo[1,2-a]pyridine]: the Ki came out at 37.3 nM. Regarding `Cc1ncc(-c2ccc3nccn3c2)c(OC[C@H]2C[C@@H]2c2ccc3ccccc3n2)n1` [Example 136, 2-((1S,2S)-2-((5-(imidazo[1,2-a]pyridin-6-yl)-2-methylpyrimidin-4-yloxy)methyl)cyclopropyl)quinoline], the Ki amounted to 0.04 nM. Then `Cc1ccc([C@H]2C[C@@H]2COc2nc(C)ncc2-c2ccc3nccn3c2)nc1` [Example 137, 6-(2-methyl-4-(((1S,2S)-2-(5-methylpyridin-2-yl)cyclopropyl)methoxy)pyrimidin-5-yl)imidazo[1,2-a]pyridine], with 0.63 nM.

With `Cc1ccc([C@H]2C[C@@H]2COc2nc(C)ncc2-c2ccc(C(C)(C)O)nc2C)nc1` [Example 138, 2-(6-Methyl-5-(2-methyl-4-(((1S,2S)-2-(5-methylpyridin-2-yl)cyclopropyl)methoxy)pyrimidin-5-yl)pyridin-2-yl)propan-2-ol], the Ki turned out to be 0.23 nM. With `Cc1ccc([C@H]2C[C@@H]2COc2nc(C)ncc2-c2ccc(C(O)C(C)C)nc2)nc1` (stereo partly drawn) [Example 139, 2-methyl-1-(5-(2-methyl-4-(((1S,2S)-2-(5-methylpyridin-2-yl)cyclopropyl)methoxy)pyrimidin-5-yl)pyridin-2-yl)propan-1-ol], the Ki is 0.37 nM. To `Cc1ccc([C@H]2C[C@@H]2COc2nc(C)ncc2-c2ccc(C(O)C(C)C)nc2)nc1` (stereo partly drawn) [Example 140, 2-methyl-1-(5-(2-methyl-4-(((1S,2S)-2-(5-methylpyridin-2-yl)cyclopropyl)methoxy)pyrimidin-5-yl)pyridin-2-yl)propan-1-ol] belongs 1.63 nM.

Values taken from US9663513B2, “Pyrimidine PDE10 inhibitors” (Merck Sharp & Dohme Corp., priority 2012, dated 2017).
